Measured values from ChEMBL document CHEMBL1909046, “DrugMatrix in vitro pharmacology data”.

Legend:
[1] = DRUGMATRIX: Sodium/nucleoside co-transporter radioligand binding (ligand: nitrobenzylthioinosine); type: cell membranes, Cavia porcellus, Dunkin-Hartley, Cerebral cortex, Membrane; settings: Not Active = under 50% inhibition at 10 µM
[2] = target: Aldo-keto reductase family 1 member B1 (Rattus norvegicus, UniProt P07943); test: biochemical; type: tissue-based, Lens of camera-type eye;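 note: inhibition of aldose reductase enzyme activity, measured with DL-glyceraldehyde as the substrate; in other assays of this panel Not Active means under 50% inhibition at 10 µM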
[3] = target: T1, B2 bradykinin receptor (Homo sapiens, UniProt P30411); type: cell membranes, Membrane; settings: chem-1; note: in other assays of this panel Not Active means under 50% inhibition at 10 µM
T1 sequence (P30411 whole entry): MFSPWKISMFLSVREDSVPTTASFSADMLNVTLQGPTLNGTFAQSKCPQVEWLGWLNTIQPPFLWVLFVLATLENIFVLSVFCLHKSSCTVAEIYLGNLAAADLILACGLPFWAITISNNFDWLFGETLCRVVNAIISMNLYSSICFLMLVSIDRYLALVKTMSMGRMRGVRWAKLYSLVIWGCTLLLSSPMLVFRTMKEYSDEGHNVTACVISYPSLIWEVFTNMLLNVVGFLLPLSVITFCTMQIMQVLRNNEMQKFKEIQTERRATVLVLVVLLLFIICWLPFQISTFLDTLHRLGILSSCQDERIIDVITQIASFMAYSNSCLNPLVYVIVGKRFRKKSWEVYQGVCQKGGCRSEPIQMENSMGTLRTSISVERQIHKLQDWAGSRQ

[4] = target: Substance-P receptor (Homo sapiens, UniProt P25103); type: cell membranes, Membrane; settings: cho; note: in other assays of this panel Not Active means under 50% inhibition at 10 µM
Substance-P receptor, sequence (P25103 whole entry): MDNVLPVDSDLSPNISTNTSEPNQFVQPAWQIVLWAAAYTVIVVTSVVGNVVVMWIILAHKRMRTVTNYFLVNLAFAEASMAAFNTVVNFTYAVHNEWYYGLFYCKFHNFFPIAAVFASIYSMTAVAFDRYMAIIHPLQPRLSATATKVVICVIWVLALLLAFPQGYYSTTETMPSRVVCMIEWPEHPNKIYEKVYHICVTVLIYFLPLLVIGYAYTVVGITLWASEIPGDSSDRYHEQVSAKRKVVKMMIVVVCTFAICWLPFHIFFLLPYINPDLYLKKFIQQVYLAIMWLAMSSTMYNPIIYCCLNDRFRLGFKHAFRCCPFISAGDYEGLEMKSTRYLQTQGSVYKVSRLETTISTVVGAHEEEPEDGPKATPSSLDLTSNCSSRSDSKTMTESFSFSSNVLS

[5] = target: T2, Nitric oxide synthase, inducible (Mus musculus, UniProt P29477); set-up: species or system Escherichia coli;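 note: inhibition of iNOS enzyme activity measured with L-arginine as substrate; in other assays of this panel Not Active means under 50% inhibition at 10 µM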
T2 sequence (P29477 whole entry): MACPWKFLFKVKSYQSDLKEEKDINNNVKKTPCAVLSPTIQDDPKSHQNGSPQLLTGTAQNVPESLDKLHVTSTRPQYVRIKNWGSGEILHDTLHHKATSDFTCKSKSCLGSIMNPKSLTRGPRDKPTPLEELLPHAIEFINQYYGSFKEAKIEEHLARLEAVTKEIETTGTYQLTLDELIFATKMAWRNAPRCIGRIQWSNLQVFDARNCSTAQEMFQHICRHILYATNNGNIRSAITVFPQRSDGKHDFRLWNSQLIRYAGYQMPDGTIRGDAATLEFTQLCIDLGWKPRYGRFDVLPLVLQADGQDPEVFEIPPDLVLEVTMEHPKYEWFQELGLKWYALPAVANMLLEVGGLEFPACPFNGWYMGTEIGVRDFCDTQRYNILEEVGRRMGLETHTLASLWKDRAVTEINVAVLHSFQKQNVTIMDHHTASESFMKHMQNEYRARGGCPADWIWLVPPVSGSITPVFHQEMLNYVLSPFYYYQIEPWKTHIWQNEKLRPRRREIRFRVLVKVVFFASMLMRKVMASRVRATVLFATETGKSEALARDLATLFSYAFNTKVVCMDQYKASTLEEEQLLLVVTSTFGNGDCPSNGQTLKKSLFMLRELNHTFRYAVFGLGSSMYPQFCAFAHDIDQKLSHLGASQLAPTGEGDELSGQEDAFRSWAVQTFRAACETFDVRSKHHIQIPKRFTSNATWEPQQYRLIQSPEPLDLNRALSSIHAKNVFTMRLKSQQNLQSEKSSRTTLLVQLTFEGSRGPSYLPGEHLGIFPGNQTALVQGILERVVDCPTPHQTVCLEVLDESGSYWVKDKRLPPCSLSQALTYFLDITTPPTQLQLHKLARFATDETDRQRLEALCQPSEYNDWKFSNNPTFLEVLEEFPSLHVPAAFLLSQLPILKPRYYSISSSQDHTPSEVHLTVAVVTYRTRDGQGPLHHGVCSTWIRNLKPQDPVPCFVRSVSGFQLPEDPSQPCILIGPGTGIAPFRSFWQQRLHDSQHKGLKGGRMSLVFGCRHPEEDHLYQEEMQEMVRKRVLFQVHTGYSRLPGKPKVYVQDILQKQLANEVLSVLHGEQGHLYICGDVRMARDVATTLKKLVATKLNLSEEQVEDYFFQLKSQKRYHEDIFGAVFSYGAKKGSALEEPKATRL

[6] = target: T3, Caspase-1 (Homo sapiens, UniProt P29466); set-up: species or system Escherichia coli
T3 sequence (P29466 whole entry): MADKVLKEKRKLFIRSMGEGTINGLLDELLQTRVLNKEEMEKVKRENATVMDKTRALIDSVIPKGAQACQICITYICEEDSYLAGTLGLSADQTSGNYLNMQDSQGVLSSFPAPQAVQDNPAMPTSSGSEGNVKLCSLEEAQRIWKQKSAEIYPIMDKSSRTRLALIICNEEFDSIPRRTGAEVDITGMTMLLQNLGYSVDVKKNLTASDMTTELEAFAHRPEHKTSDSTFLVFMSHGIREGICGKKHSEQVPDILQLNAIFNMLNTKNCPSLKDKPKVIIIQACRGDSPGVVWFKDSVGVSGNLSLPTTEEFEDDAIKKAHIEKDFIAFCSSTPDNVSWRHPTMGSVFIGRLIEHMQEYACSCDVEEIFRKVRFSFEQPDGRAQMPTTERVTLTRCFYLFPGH

[7] = target: T4, Cathepsin G (Homo sapiens, UniProt P08311); type: tissue-based; settings: neutrophil
T4 sequence (P08311 whole entry): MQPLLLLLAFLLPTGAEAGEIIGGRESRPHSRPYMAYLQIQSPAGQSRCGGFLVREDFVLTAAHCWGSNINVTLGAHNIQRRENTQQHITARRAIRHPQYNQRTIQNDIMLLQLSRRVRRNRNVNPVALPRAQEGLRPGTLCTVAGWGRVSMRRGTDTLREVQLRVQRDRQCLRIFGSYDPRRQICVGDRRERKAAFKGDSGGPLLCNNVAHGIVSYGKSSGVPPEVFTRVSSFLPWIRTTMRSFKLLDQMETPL

[8] = target: T5, Cytochrome P450 2A6 (Homo sapiens, UniProt P11509); settings: bti-tn-5b1-4; note: in other assays of this panel Not Active means under 50% inhibition at 10 µM
T5 sequence (P11509 whole entry): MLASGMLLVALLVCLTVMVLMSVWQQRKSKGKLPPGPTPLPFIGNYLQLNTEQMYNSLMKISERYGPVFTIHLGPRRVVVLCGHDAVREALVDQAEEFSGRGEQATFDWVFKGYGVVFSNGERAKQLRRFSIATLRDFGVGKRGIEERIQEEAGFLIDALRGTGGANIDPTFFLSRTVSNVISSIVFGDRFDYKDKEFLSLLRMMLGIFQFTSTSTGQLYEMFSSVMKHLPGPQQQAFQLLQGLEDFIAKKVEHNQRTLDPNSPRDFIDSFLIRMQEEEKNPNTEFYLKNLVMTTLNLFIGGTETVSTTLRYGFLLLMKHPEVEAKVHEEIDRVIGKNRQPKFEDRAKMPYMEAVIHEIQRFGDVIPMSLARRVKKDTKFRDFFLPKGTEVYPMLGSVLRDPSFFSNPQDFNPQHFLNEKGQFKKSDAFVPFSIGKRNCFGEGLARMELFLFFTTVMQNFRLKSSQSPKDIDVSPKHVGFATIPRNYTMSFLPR

CC(C)(C)c1ccc(C(O)CCCN2CCC(C(O)(c3ccccc3)c3ccccc3)CC2)cc1 (stereo not given) [TERFENADINE]
Not Active: IC50 [1] | Ki [1] | IC50 [2] | IC50 [3] | IC50 [4] | IC50 [5] | IC50 [6] | IC50 [7] | IC50 [8] | Ki [8]

O=C(c1ccc(OCCN2CCCCC2)cc1)c1c(-c2ccc(O)cc2)sc2cc(O)ccc12 [RALOXIFENE]
Not Active: IC50 [1] | Ki [1] | IC50 [2] | IC50 [3] | IC50 [4] | IC50 [5] | IC50 [6] | IC50 [7] | IC50 [8] | Ki [8]

CO[C@H]1/C=C/O[C@@]2(C)Oc3c(C)c(O)c4c(c3C2=O)C2=NC3(CCN(CC(C)C)CC3)NC2=C(NC(=O)/C(C)=C\C=C\[C@H](C)[C@H](O)[C@@H](C)[C@@H](O)[C@@H](C)[C@H](OC(C)=O)[C@@H]1C)C4=O [RIFABUTIN]
Not Active: IC50 [1] | Ki [1] | IC50 [2] | IC50 [3] | IC50 [4] | IC50 [5] | IC50 [6] | IC50 [7] | IC50 [8] | Ki [8]

C[C@@H](N)[C@H]1CC[C@H](C(=O)Nc2ccncc2)CC1 [Y-27632]
Not Active: IC50 [1] | Ki [1] | IC50 [2] | IC50 [3] | IC50 [4] | IC50 [5] | IC50 [6] | IC50 [7] | IC50 [8] | Ki [8]
